# In PMC8496750, “Identification of the organic anion transporting polypeptides responsible for the hepatic uptake of the major metabolite of epyrifenacil, S‐3100‐CA, in mice” (Pharmacology Research & Perspectives, 2021):
# Assays:
# [1] = molecular target: T1, mouse Oatp1a4 (Mus musculus, UniProt Q9EP96); details: inhibitor at 100 μM
# T1 sequence (Q9EP96 1-670): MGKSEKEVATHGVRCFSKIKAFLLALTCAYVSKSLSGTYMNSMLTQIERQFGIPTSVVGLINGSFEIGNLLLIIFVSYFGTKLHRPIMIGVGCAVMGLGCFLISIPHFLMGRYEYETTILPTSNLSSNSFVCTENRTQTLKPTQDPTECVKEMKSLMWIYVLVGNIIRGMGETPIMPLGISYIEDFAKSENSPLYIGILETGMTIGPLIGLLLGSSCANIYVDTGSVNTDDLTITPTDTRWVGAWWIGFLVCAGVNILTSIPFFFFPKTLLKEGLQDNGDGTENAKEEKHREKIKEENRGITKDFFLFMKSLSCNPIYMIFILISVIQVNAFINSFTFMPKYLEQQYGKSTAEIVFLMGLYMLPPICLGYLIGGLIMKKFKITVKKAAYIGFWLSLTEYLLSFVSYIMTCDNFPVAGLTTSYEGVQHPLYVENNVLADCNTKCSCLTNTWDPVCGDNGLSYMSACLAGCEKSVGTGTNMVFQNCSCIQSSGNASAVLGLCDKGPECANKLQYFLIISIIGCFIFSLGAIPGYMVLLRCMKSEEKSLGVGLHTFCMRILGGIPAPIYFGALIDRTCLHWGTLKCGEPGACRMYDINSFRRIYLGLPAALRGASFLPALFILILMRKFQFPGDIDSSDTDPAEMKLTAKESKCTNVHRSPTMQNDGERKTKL
# Procedure: (§1) Transport experiments were conducted approximately 24 h post‐transfection. The experiments were initiated by aspirating culture medium and addition of pre‐warmed radiolabeled substrate solution (final 1.0% of acetonitrile or 0.9% of ethanol in phosphate‐buffered saline (PBS[−])) to each well. After a 10‐min incubation, cells were washed twice with 1 ml of ice‐cold PBS(−) and lysed with 700 μl of 1.0 M NaOH for 3 h or more at room temperature. The lysate was transferred to a 1.5‐ml tube, and neutralized with 350 μl of 2.0 M HCl and 350 μl of 2.0% sodium dodecyl sulfate (SDS) solution. From the lysate, 1.0 ml was transferred to a vial containing 10 ml of Emulsifier Scintillator Plus to measure the radioactivity in the LSC. The protein concentration of the cell lysate was also measured using a Pierce™ BCA Protein Assay Kit (Thermo Fisher Scientific, Inc.), which was used to normalize, according to the cell number, the radioactivity in the cell lysate extract. The protein assay was performed in duplicate. Each sample type was assayed in triplicate wells, and each run was performed twice. […] Each sample type was assayed in triplicate wells.
# [2] = molecular target: T2, human OATP1B1 (Homo sapiens, UniProt Q9Y6L6); test: Inhibition of S‐3100‐CA uptake by OATP inhibitors, human OATP1B1; format: in vitro ADME; details: inhibitor at 100 μM
# T2 construct: expressed in transfected cells; host or cells: 293FT cells
# T2 sequence (Q9Y6L6 1-691): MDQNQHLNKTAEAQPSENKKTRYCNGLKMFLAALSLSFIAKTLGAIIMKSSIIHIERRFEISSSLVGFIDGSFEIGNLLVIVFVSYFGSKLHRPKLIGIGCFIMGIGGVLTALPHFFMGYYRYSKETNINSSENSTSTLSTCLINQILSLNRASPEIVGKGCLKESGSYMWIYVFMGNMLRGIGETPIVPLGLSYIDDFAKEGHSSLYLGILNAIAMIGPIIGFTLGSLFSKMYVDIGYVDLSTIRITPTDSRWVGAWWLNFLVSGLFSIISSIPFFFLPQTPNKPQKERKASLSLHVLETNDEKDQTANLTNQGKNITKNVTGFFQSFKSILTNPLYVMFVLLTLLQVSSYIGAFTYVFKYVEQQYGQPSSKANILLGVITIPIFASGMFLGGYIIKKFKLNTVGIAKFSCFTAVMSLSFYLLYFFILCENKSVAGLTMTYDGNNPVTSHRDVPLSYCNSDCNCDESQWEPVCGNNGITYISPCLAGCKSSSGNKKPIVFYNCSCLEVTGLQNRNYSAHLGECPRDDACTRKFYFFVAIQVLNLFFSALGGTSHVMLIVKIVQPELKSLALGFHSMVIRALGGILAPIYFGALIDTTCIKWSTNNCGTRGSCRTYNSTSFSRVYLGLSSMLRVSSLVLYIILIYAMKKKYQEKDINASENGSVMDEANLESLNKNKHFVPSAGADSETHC
# Procedure: 293FT cells were purchased from Thermo Fisher Scientific, Inc.. The cells were grown in Dulbecco's modified Eagle medium (supplemented with 4.5 g/L glucose and 2 mM L‐glutamine) at 37°C, 5% CO2, and 95% humidity. The cells were passaged 3 times per week by harvesting cells using trypsin and plating at a density of 1.0 × 10^4 cells/cm^2 in a 10 cm cell culture plate for maintenance culture. The 293FT cells were detached using trypsin and re‐seeded at a density of 2.5 × 10^4 cells/cm^2 in BioCoat™ Collagen I 6‐well plates (Corning Inc.) for transfection and then treated with 1.2 μg of plasmid vector and 3.2 μl of Lipofectamine™ 2000 Transfection Reagent (Thermo Fisher Scientific, Inc.) according to the manufacturer's instructions. After a 3‐h treatment, the transfection medium was replaced with a fresh cell culture medium and incubated at 37°C with 95% humidity and 5% CO2 until ready for the assay.
# Transport experiments were conducted approximately 24 h post‐transfection. […] From the lysate, 1.0 ml was transferred to a vial containing 10 ml of Emulsifier Scintillator Plus to measure the radioactivity in the LSC. The protein concentration of the cell lysate was also measured using a Pierce™ BCA Protein Assay Kit (Thermo Fisher Scientific, Inc.), which was used to normalize, according to the cell number, the radioactivity in the cell lysate extract. […]
# [3] = molecular target: T3, mouse Oatp1a1 (Mus musculus, UniProt Q9QXZ6); test: in vitro; details: 293FT cells transiently transfected with mouse Oatp1a1, probe radiolabeled S‐3100‐CA
# T3 sequence (Q9QXZ6 1-670): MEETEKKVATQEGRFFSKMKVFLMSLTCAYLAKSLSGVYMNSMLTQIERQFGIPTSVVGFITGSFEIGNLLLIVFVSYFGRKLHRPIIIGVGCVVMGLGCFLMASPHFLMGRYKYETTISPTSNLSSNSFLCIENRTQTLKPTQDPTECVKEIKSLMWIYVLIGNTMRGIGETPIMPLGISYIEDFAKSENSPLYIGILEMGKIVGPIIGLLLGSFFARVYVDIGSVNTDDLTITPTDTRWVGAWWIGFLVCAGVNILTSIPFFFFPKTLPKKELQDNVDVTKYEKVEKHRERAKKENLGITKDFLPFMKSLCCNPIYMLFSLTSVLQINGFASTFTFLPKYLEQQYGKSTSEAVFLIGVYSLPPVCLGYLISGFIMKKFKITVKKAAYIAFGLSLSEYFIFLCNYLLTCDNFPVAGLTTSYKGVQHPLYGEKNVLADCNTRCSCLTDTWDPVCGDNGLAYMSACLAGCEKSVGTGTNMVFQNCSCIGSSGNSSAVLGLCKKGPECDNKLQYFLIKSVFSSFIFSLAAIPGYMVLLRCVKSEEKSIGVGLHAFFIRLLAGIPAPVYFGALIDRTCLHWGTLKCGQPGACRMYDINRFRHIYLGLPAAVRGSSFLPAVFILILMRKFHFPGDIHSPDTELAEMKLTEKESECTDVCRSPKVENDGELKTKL
# Procedure: as §1
structure (smiles),measurement,setting,value
"CO[C@H]1/C=C/O[C@@]2(C)Oc3c(C)c(O)c4c(O)c(c(/C=N/N5CCN(C)CC5)c(O)c4c3C2=O)NC(=O)/C(C)=C\C=C\[C@H](C)[C@H](O)[C@@H](C)[C@@H](O)[C@@H](C)[C@H](OC(C)=O)[C@@H]1C [RIF, Rifampicin]","Uptake of S‐3100‐CA, % of that by vehicle‐treated cells",[1],less than 40%
same,"Uptake of S‐3100‐CA, % of that by vehicle‐treated cells",[2],less than 40%
same,"inhibition at 10 min, 10 µM",[3],> 50%
